Test [1] addresses T1, CDK2/CycE (Homo sapiens, UniProt P24941).
T1 construct: GST; purchased ProQinase GmbH (Freiburg, Germany); host or cells: insect cells (Sf9)
Briefly: CDK2/CycE kinase assay (TR-FRET). Format: biochemical. To be noted: avg, read-out: CDK2 avg (IC50 [mol/l]). Put shortly: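 Read-out is a TR-FRET 665/620 nm emission ratio from EDTA-stopped reactions detected with anti-pRB(pSer807/pSer811), Eu-labelled anti-mouse IgG and streptavidin-XL665, scaled between no-enzyme and uninhibited wells. Reaction: Sf9-expressed GST-CDK2/GST-CycE, 15 min compound preincubation, 10 μM ATP, 0.75 μM biotin-peptide, 25 min, 22° C., pH 8.0 Tris buffer.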

Test [2] deals with HeLa. Briefly: Proliferation assay (crystal violet), HeLa. Format: cell-based. To be noted: HeLa cells, 4 days incubation, crystal violet staining, read-out: IC50 inhibition of proliferation, HeLa. The procedure, abridged:
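Absorbance at 595 nm of crystal-violet-stained cells after 4 days' exposure to 0.001–10 μM compound (0.5% DMSO). Values normalized to a day-0 plate (0%) and untreated cells (100%); IC50 by 4-parameter fit.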

Like-named read-outs stand apart in the source and are kept apart here.

Turning to `Cc1nsc(Nc2cnc(C(F)(F)F)cn2)c1C(=O)Nc1ccc(OCC2CCCN(CC(F)(F)F)C2)nc1` (centres unmarked) [Example 326, 3-methyl-N-(6-{[1-(2,2,2-trifluoroethyl)piperidin-3-yl]methoxy}pyridin-3-yl)-5-{[5-(trifluoromethyl)pyrazin-2-yl]amino}-1,2-thiazole-4-carboxamide], the IC50 in test [1] is not below 20 µM; in test [2] (Homo sapiens, HeLa, 96 h) it was 300 nM.
The like results for `Cc1nsc(Nc2cnc(C(F)(F)F)cn2)c1C(=O)Nc1ccc(OCC2CCCN(CC(F)F)C2)nc1` (centres unmarked) [Example 327, N-(6-{[1-(2,2-difluoroethyl)piperidin-3-yl]methoxy}pyridin-3-yl)-3-methyl-5-{[5-(trifluoromethyl)pyrazin-2-yl]amino}-1,2-thiazole-4-carboxamide] were, in that order, not below 20 µM and 370 nM.
Regarding `Cc1nsc(Nc2cnc(C(F)(F)F)cn2)c1C(=O)Nc1ccc(OCC2CCCN(CCC(F)(F)F)C2)nc1` (centres unmarked) [Example 328, 3-methyl-5-{[5-(trifluoromethyl)pyrazin-2-yl]amino}-N-(6-{[1-(3,3,3-trifluoropropyl)piperidin-3-yl]methoxy}pyridin-3-yl)-1,2-thiazole-4-carboxamide], the IC50 in test [1] is not below 20 µM; in test [2] (Homo sapiens, HeLa, 96 h), 360 nM.
Turning to `Cc1nsc(Nc2cnc(C(F)(F)F)cn2)c1C(=O)Nc1ccc(OC2CCCN(CCF)C2)nc1` (centres unmarked) [Example 329, N-(6-{[1-(2-fluoroethyl)piperidin-3-yl]oxy}pyridin-3-yl)-3-methyl-5-{[5-(trifluoromethyl)pyrazin-2-yl]amino}-1,2-thiazole-4-carboxamide], the IC50 is not below 20 µM in test [1] and 1300 nM in test [2] (Homo sapiens, HeLa, 96 h).
The like results for `Cc1nsc(Nc2cnc(C(F)(F)F)cn2)c1C(=O)Nc1ccc(OC2CCCN(CC(F)F)C2)nc1` (centres unmarked) [Example 330, N-(6-{[1-(2,2-difluoroethyl)piperidin-3-yl]oxy}pyridin-3-yl)-3-methyl-5-{[5-(trifluoromethyl)pyrazin-2-yl]amino}-1,2-thiazole-4-carboxamide] were, in that order, not below 20 µM and 1200 nM.
The like results for `Cc1nsc(Nc2cnc(C(F)(F)F)cn2)c1C(=O)Nc1ccc(OC2CCCN(CC(F)(F)F)C2)nc1` (centres unmarked) [Example 331, 3-methyl-N-(6-{[1-(2,2,2-trifluoroethyl)piperidin-3-yl]oxy}pyridin-3-yl)-5-{[5-(trifluoromethyl)pyrazin-2-yl]amino}-1,2-thiazole-4-carboxamide] were, in that order, not below 20 µM and 260 nM.
For `Cc1nsc(Nc2cnc(C(F)(F)F)cn2)c1C(=O)Nc1ccc(OC2CCCN(CCC(F)(F)F)C2)nc1` (centres unmarked) [Example 332, 3-methyl-5-{[5-(trifluoromethyl)pyrazin-2-yl]amino}-N-(6-{[1-(3,3,3-trifluoropropyl)piperidin-3-yl]oxy}pyridin-3-yl)-1,2-thiazole-4-carboxamide] the same measures were not below 20 µM and 350 nM.
As to `Cc1nsc(Nc2cnc(C(F)(F)F)cn2)c1C(=O)Nc1ccc(OC2CCCN(C(CF)CF)C2)nc1` (centres unmarked) [Example 333, N-(6-{[1-(1,3-difluoropropan-2-yl)piperidin-3-yl]oxy}pyridin-3-yl)-3-methyl-5-{[5-(trifluoromethyl)pyrazin-2-yl]amino}-1,2-thiazole-4-carboxamide], the IC50 is not below 20 µM in test [1] and 1200 nM in test [2] (Homo sapiens, HeLa, 96 h).
With `Cc1nsc(Nc2cnc(C(F)(F)F)cn2)c1C(=O)Nc1ccc(F)c(OCC2CCCN(CC(F)F)C2)c1` (centres unmarked) [Example 334, N-(3-{[1-(2,2-difluoroethyl)piperidin-3-yl]methoxy}-4-fluorophenyl)-3-methyl-5-{[5-(trifluoromethyl)pyrazin-2-yl]amino}-1,2-thiazole-4-carboxamide], the IC50 was not below 20 µM in test [1] and 370 nM in test [2].
On to `Cc1nsc(Nc2cnc(C(F)(F)F)cn2)c1C(=O)Nc1ccc(F)c(OCC2CCCN(CCF)C2)c1` (centres unmarked) [Example 336, N-(4-fluoro-3-{[1-(2-fluoroethyl)piperidin-3-yl]methoxy}phenyl)-3-methyl-5-{[5-(trifluoromethyl)pyrazin-2-yl]amino}-1,2-thiazole-4-carboxamide], for which the IC50 was not below 20 µM in test [1] and 390 nM in test [2] (Homo sapiens, HeLa, 96 h).
For `Cc1nsc(Nc2cnc(C(F)(F)F)cn2)c1C(=O)Nc1ccc(F)c(OCC2CCCN(CC(F)(F)F)C2)c1` (centres unmarked) [Example 337, N-(4-fluoro-3-{[1-(2,2,2-trifluoroethyl)piperidin-3-yl]methoxy}phenyl)-3-methyl-5-{[5-(trifluoromethyl)pyrazin-2-yl]amino}-1,2-thiazole-4-carboxamide] the same measures were not below 20 µM and 370 nM.
For `Cc1nsc(Nc2cnc(C(F)(F)F)cn2)c1C(=O)Nc1ccc(F)c(OCC2CCCN(CCC(F)(F)F)C2)c1` (centres unmarked) [Example 338, N-(4-fluoro-3-{[1-(3,3,3-trifluoropropyl)piperidin-3-yl]methoxy}phenyl)-3-methyl-5-{[5-(trifluoromethyl)pyrazin-2-yl]amino}-1,2-thiazole-4-carboxamide] the same measures were not below 20 µM and 450 nM.
Consider `Cc1nsc(Nc2cnc(C(F)(F)F)cn2)c1C(=O)Nc1ccc(F)c(OC[C@@H]2CCN(CC(F)(F)F)C2)c1` [Example 339, N-(4-fluoro-3-{[(3R)-1-(2,2,2-trifluoroethyl)pyrrolidin-3-yl]methoxy}phenyl)-3-methyl-5-{[5-(trifluoromethyl)pyrazin-2-yl]amino}-1,2-thiazole-4-carboxamide], for which the IC50 was more than 20 µM in test [1] and 380 nM in test [2] (Homo sapiens, HeLa, 96 h).
On to `Cc1nsc(Nc2cnc(C(F)(F)F)cn2)c1C(=O)Nc1ccc(F)c(OC[C@@H]2CCN(CCC(F)(F)F)C2)c1` [Example 340, N-(4-fluoro-3-{[(3R)-1-(3,3,3-trifluoropropyl)pyrrolidin-3-yl]methoxy}phenyl)-3-methyl-5-{[5-(trifluoromethyl)pyrazin-2-yl]amino}-1,2-thiazole-4-carboxamide], for which the IC50 in test [1] is more than 20 µM; in test [2] (Homo sapiens, HeLa, 96 h) it was 430 nM.
The like results for `Cc1nsc(Nc2cnc(C(F)(F)F)cn2)c1C(=O)Nc1ccc(F)c(OC[C@@H]2CCCN(CC(F)F)C2)c1` [Example 341, N-(3-{[(3R)-1-(2,2-difluoroethyl)piperidin-3-yl]methoxy}-4-fluorophenyl)-3-methyl-5-{[5-(trifluoromethyl)pyrazin-2-yl]amino}-1,2-thiazole-4-carboxamide] were, in that order, more than 20 µM and 440 nM.
For the compound `Cc1nsc(Nc2cnc(C(F)(F)F)cn2)c1C(=O)Nc1ccc(F)c(OC[C@@H]2CCCN(CC(F)(F)F)C2)c1` [Example 342, N-(4-fluoro-3-{[(3R)-1-(2,2,2-trifluoroethyl)piperidin-3-yl]methoxy}phenyl)-3-methyl-5-{[5-(trifluoromethyl)pyrazin-2-yl]amino}-1,2-thiazole-4-carboxamide], the IC50 was more than 20 µM in test [1] and 470 nM in test [2] (Homo sapiens, HeLa, 96 h).
Turning to `Cc1nsc(Nc2cncc(C(F)(F)F)n2)c1C(=O)Nc1ccc(F)c(OC2CCN(CCC(F)(F)F)CC2)c1` [Example 343, N-(4-fluoro-3-{[1-(3,3,3-trifluoropropyl)piperidin-4-yl]oxy}phenyl)-3-methyl-5-{[6-(trifluoromethyl)pyrazin-2-yl]amino}-1,2-thiazole-4-carboxamide], the IC50 was not below 20 µM in test [1] and 1400 nM in test [2] (Homo sapiens, HeLa, 96 h).
The like results for `Cc1nsc(Nc2cnc(C(F)(F)F)cn2)c1C(=O)Nc1ccc(OCC2CCN(CCF)CC2)nc1` [Example 344, N-(6-{[1-(2-fluoroethyl)piperidin-4-yl]methoxy}pyridin-3-yl)-3-methyl-5-{[5-(trifluoromethyl)pyrazin-2-yl]amino}-1,2-thiazole-4-carboxamide] were, in that order, not below 20 µM and 990 nM.
For `Cc1nsc(Nc2cnc(C(F)(F)F)cn2)c1C(=O)Nc1ccc(OCC2CCN(CC(F)F)CC2)nc1` [Example 345, N-(6-{[1-(2,2-difluoroethyl)piperidin-4-yl]methoxy}pyridin-3-yl)-3-methyl-5-{[5-(trifluoromethyl)pyrazin-2-yl]amino}-1,2-thiazole-4-carboxamide] the same measures were not below 20 µM and 270 nM.
Take `Cc1nsc(Nc2cnc(C(F)(F)F)cn2)c1C(=O)Nc1ccc(OCC2CCN(CC(F)(F)F)CC2)nc1` [Example 346, 3-methyl-N-(6-{[1-(2,2,2-trifluoroethyl)piperidin-4-yl]methoxy}pyridin-3-yl)-5-{[5-(trifluoromethyl)pyrazin-2-yl]amino}-1,2-thiazole-4-carboxamide]: the IC50 is not below 20 µM in test [1] and 270 nM in test [2] (Homo sapiens, HeLa, 96 h).
For `Cc1nsc(Nc2cnc(C(F)(F)F)cn2)c1C(=O)Nc1ccc(OCC2CCN(CCC(F)(F)F)CC2)nc1` [Example 347, 3-methyl-5-{[5-(trifluoromethyl)pyrazin-2-yl]amino}-N-(6-{[1-(3,3,3-trifluoropropyl)piperidin-4-yl]methoxy}pyridin-3-yl)-1,2-thiazole-4-carboxamide] the same measures were not below 20 µM and 390 nM.
For `Cc1nsc(Nc2cnc(C(F)(F)F)cn2)c1C(=O)Nc1ccc(OCCN(C)CCF)nc1` [Example 348, N-(6-{2-[(2-fluoroethyl)(methyl)amino]ethoxy}pyridin-3-yl)-3-methyl-5-{[5-(trifluoromethyl)pyrazin-2-yl]amino}-1,2-thiazole-4-carboxamide] the same measures were not below 20 µM and 1000 nM.

Source of the values: patent publication US20170334899A1, “AMINO-SUBSTITUTED ISOTHIAZOLES” (Bayer Pharma Aktiengesellschaft, priority 2014, published 2017).
